According to the NIST ThermoML archive (doi:10.1021/je100476h):

Assay: mn = molality of the nth substance listed, in mol/kg
Conditions: 101 kPa, Liquid

O [water] + CC(=O)[O-].[Na+]
Conditions | mass density [kg/m3]
308.15 K, m2 = 0 | 994.063

NCCCC(=O)O [4-aminobutanoic acid] + O
mass density [kg/m3]
Conditions | m1 = 0.04607 | m1 = 0.09549 | m1 = 0.1155 | m1 = 0.1652 | m1 = 0.1882 | m1 = 0.2277
288.15 K | 1000.54 | 1002.05 | 1002.65 | 1004.13 | 1004.83 | 1005.99
298.15 K | 998.428 | 999.894 | 1000.48 | 1001.93 | 1002.61 | 1003.73
308.15 K | 995.406 | 996.864 | 997.447 | 998.889 | 999.542 | 1000.66
318.15 K | 991.616 | 993.071 | 993.654 | 995.086 | 995.747 | 996.868

CC(=O)[O-].CC(=O)[O-].[Mg+2] [magnesium acetate] + O
mass density [kg/m3]
Conditions | 288.15 K | 298.15 K | 308.15 K | 318.15 K
m1 = 0.1 | 1007.01 | 1004.9 | 1001.84 | 998.062
m1 = 0.25 | 1018.2 | 1016.05 | 1012.89 | 1009.15
m1 = 0.5 | 1035.44 | 1033.15 | 1030.05 | 1026.24
m1 = 1 | 1064.68 | 1061.74 | 1059.65 | 1055.19

NCCCCCC(=O)O [6-aminohexanoic acid] + O
mass density [kg/m3]
Conditions | m1 = 0.05814 | m1 = 0.09073 | m1 = 0.1798 | m1 = 0.1945 | m1 = 0.267 | m1 = 0.3522
288.15 K | 1000.76 | 1001.66 | 1004.09 | 1004.48 | 1006.41 | 1008.64
298.15 K | 998.622 | 999.493 | 1001.84 | 1002.22 | 1004.08 | 1006.23
308.15 K | 995.592 | 996.454 | 998.775 | 999.147 | 1000.99 | 1003.12
318.15 K | 991.793 | 992.649 | 994.956 | 995.328 | 997.158 | 999.27

NCC(=O)O [2-aminoacetic acid] + O
mass density [kg/m3]
Conditions | m1 = 0.1429 | m1 = 0.2709 | m1 = 0.3812 | m1 = 0.4102 | m1 = 0.4801 | m1 = 0.5732
288.15 K | 1003.76 | 1007.85 | 1011.33 | 1012.23 | 1014.4 | 1017.27
298.15 K | 1001.56 | 1005.54 | 1008.93 | 1009.8 | 1011.92 | 1014.71
308.15 K | 998.477 | 1002.4 | 1005.73 | 1006.59 | 1008.66 | 1011.41
318.15 K | 994.636 | 998.503 | 1001.79 | 1002.63 | 1004.67 | 1007.37

CC(=O)[O-].[Na+] [sodium ethanoate] + O
mass density [kg/m3]
Conditions | 288.15 K | 298.15 K | 308.15 K | 318.15 K
m1 = 0.1 | 1003.46 | 1001.31 | 998.243 | 994.384
m1 = 0.25 | 1009.6 | 1007.39 | 1004.27 | 1000.35
m1 = 0.5 | 1019.38 | 1017.07 | 1013.89 | 1009.85
m1 = 1 | 1037.22 | 1034.76 | 1031.54 | 1027.23
